Source: patent publication US20140000883A1, “PETROLEUM RECOVERY PROCESS AND SYSTEM” (Shell Oil Company, priority 2012, published 2014)

How the values were obtained:
[1] = SARA analysis of extracted bitumen samples; conditions: bitumen extracted at 30° C.
Method: The bitumen samples extracted at 30° C. from each oil sands sample were evaluated by SARA analysis to determine the saturates, aromatics, resins, and asphaltenes composition of the bitumen samples extracted by each solvent.

[2] = Incremental oil recovery from formation core after water-flooding; conditions: after waterflooding with brine
Method: Incremental recovery of oil from a formation core using an oil recovery formulation consisting of dimethyl sulfide following oil recovery from the core by water-flooding was measured to evaluate the effectiveness of DMS as a tertiary oil recovery agent.
Two 5.02 cm long Berea sandstone cores with a core diameter of 3.78 cm and a permeability between 925 and 1325 mD were saturated with a brine having a composition as set forth in Table 7.
After saturation of the cores with brine, the brine was displaced by a Middle Eastern Asphaltic crude oil having the characteristics as set forth above in Table 3 to saturate the cores with oil.
Oil was recovered from each oil saturated core by the addition of brine to the core under pressure and by subsequent addition of DMS to the core under pressure. Each core was treated as follows to determine the amount of oil recovered from the core by addition of brine followed by addition of DMS. Oil was initially displaced from the core by addition of brine to the core under pressure. A confining pressure of 1 MPa was applied to the core during addition of the brine, and the flow rate of brine to the core was set at 0.05 ml/min. The core was maintained at a temperature of 50° C. during displacement of oil from the core with brine. […]

Structure (SMILES): CSC [Dimethyl Sulfide, dimethyl sulfide]
- extraction of / miscibility with asphaltenes [1]: excellent miscibility properties
- oil recovered of the oil remaining in the core after the waterflood [2]: approximately 60%
